In PubChem BioAssay AID270 (DTP/NCI, 2004):
“And” between values parts separate entries of the source, which are not always exact repeats. Equal values may be shown once. Inconclusive results are not listed.

Tested on: BDF1 mice, s.c. Lewis lung carcinoma, T/C %
Test: NCI In Vivo Anticancer Drug Screen. Data for tumor model Lewis Lung Carcinoma (subcutaneous) in B6D2F1 (BDF1) mice
Method in brief: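 The value reflects a ratio in which the treated cohort's survival time or tumour size is compared against mice receiving only vehicle.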

[1] = endpoint: mean tumor weight, dose: 50.0 mg/kg/injection, schedule: Q01DX011 (ip), vehicle: carboxymethylcellulose (CMC), higher = larger tumour
[2] = endpoint: mean tumor weight, dose: 100.0 mg/kg/injection, schedule: Q01DX011 (ip), vehicle: carboxymethylcellulose (CMC), higher = larger tumour

For CC(=O)[C@H]1CC[C@H]2[C@@H]3CCC4=CC(=O)CC[C@]4(C)[C@H]3CC[C@]12C, the T/C (endpoint: median survival time, dose: 12.5 mg/kg/injection, schedule: Q02DX009 (ip), vehicle: Klucel (hydroxypropylcellulose) (HPC), higher = longer survival) was 99 % of control, the T/C (endpoint: median survival time, dose: 25.0 mg/kg/injection, schedule: Q02DX009 (ip), vehicle: Klucel (hydroxypropylcellulose) (HPC), higher = longer survival) was 107 % of control and the T/C (endpoint: median survival time, dose: 50.0 mg/kg/injection, schedule: Q02DX009 (ip), vehicle: Klucel (hydroxypropylcellulose) (HPC), higher = longer survival) was 90 % of control. For the same molecule, the T/C (endpoint: median survival time, dose: 100.0 mg/kg/injection, schedule: Q02DX009 (ip), vehicle: Klucel (hydroxypropylcellulose) (HPC), higher = longer survival) was 95 % of control, the T/C (endpoint: median survival time, dose: 200.0 mg/kg/injection, schedule: Q02DX009 (ip), vehicle: Klucel (hydroxypropylcellulose) (HPC), higher = longer survival) was 101 % of control and the T/C (endpoint: median survival time, dose: 400.0 mg/kg/injection, schedule: Q02DX009 (ip), vehicle: Klucel (hydroxypropylcellulose) (HPC), higher = longer survival) was 96 % of control.
For S=c1c2[nH]cnc2ncn1CCSC1=NC=NC2=NC=NC21 (stereo not given), the T/C (endpoint: mean tumor weight, dose: 50.0 mg/kg/injection, schedule: Q01DX011 (ip), vehicle: other, higher = larger tumour) was 96 % of control, the T/C (endpoint: mean tumor weight, dose: 100.0 mg/kg/injection, schedule: Q01DX011 (ip), vehicle: other, higher = larger tumour) was 53 % of control and the T/C (endpoint: mean tumor weight, dose: 200.0 mg/kg/injection, schedule: Q01DX011 (ip), vehicle: other, higher = larger tumour) was 61 % of control. The T/C (endpoint: mean tumor weight, dose: 400.0 mg/kg/injection, schedule: Q01DX011 (ip), vehicle: other, higher = larger tumour) was 37 % of control.
In the case of CCC1/C=C/C=C/CC(C)C(O)C(C)(O)C(=O)C(C)C(O)C(C)C(=O)C(C)C(O)C(C)/C=C/C(=O)OC2C(C)C(CC1)OC1(OC(CC(C)O)C(C)CC1=O)C2C (stereo not given) (tested in a mixture with another compound), the T/C (endpoint: mean tumor weight, dose: 2.0 mg/kg/injection, schedule: Q01DX011 (ip), vehicle: saline, higher = larger tumour) was 106 % of control, the T/C (endpoint: mean tumor weight, dose: 4.0 mg/kg/injection, schedule: Q01DX011 (ip), vehicle: saline, higher = larger tumour) was 94 % of control and the T/C (endpoint: mean tumor weight, dose: 8.0 mg/kg/injection, schedule: Q01DX011 (ip), vehicle: saline, higher = larger tumour) was 82 % of control.
With COc1ccc(-c2cc(=O)c3c(O)cc(OC)cc3o2)cc1 the T/C (endpoint: mean tumor weight, dose: 220.0 mg/kg/injection, schedule: Q01DX011 (ip), vehicle: saline, higher = larger tumour) was 84 % of control, the T/C (endpoint: mean tumor weight, dose: 330.0 mg/kg/injection, schedule: Q01DX011 (ip), vehicle: saline, higher = larger tumour) was 71 % of control and 89 % of control and the T/C (endpoint: mean tumor weight, dose: 500.0 mg/kg/injection, schedule: Q01DX011 (ip), vehicle: saline, higher = larger tumour) was 48 % of control and 60 % of control.
With CC1CC(C)(O)C2C3(C)CCCC2(COC3=O)C12CCC1(CCOC1=O)O2 (stereo not given) the T/C (endpoint: median survival time, dose: 2.5 mg/kg/injection, schedule: Q01DX009 (ip), vehicle: saline with Tween-80, higher = longer survival) was 109 % of control, the T/C (endpoint: median survival time, dose: 5.0 mg/kg/injection, schedule: Q01DX009 (ip), vehicle: saline with Tween-80, higher = longer survival) was 108 % of control and the T/C (endpoint: median survival time, dose: 10.0 mg/kg/injection, schedule: Q01DX009 (ip), vehicle: saline with Tween-80, higher = longer survival) was 100 % of control.
In the case of O=P(N1CCOCC1)(N1CC1)N1CC1, the T/C (endpoint: median survival time, dose: 0.78 mg/kg/injection, schedule: Q01DX009 (ip), vehicle: saline, higher = longer survival) was 100 % of control, the T/C (endpoint: median survival time, dose: 1.56 mg/kg/injection, schedule: Q01DX009 (ip), vehicle: saline, higher = longer survival) was 124 % of control and the T/C (endpoint: median survival time, dose: 3.12 mg/kg/injection, schedule: Q01DX009 (ip), vehicle: saline, higher = longer survival) was 100 % of control. The T/C (endpoint: median survival time, dose: 3.13 mg/kg/injection, schedule: Q01DX009 (ip), vehicle: saline, higher = longer survival) was 113 % of control, the T/C (endpoint: median survival time, dose: 6.25 mg/kg/injection, schedule: Q01DX009 (ip), vehicle: saline, higher = longer survival) was 97 % of control and 110 % of control and the T/C (endpoint: median survival time, dose: 25.0 mg/kg/injection, schedule: Q01DX009 (ip), vehicle: saline, higher = longer survival) was 107 % of control.
In the case of CN(C)CC(Cl)CCl (stereo not given), the T/C (endpoint: median survival time, dose: 50.0 mg/kg/injection, schedule: Q01DX009 (ip), vehicle: saline, higher = longer survival) was 117 % of control, the T/C (endpoint: median survival time, dose: 100.0 mg/kg/injection, schedule: Q01DX009 (ip), vehicle: saline, higher = longer survival) was 122 % of control and the T/C (endpoint: median survival time, dose: 200.0 mg/kg/injection, schedule: Q01DX009 (ip), vehicle: saline, higher = longer survival) was 105 % of control.
For C=CC(=O)NCNC(=O)C=C, the T/C (endpoint: mean tumor weight, dose: 44.0 mg/kg/injection, schedule: Q01DX011 (ip), vehicle: saline, higher = larger tumour) was 101 % of control, the T/C (endpoint: mean tumor weight, dose: 66.0 mg/kg/injection, schedule: Q01DX011 (ip), vehicle: saline, higher = larger tumour) was 48 % of control and the T/C (endpoint: mean tumor weight, dose: 100.0 mg/kg/injection, schedule: Q01DX011 (ip), vehicle: saline, higher = larger tumour) was 56 % of control.
For O=C(O)CCC(=O)Nc1nccs1, the T/C [1] was 77 % of control, the T/C [2] was 83 % of control and the T/C (endpoint: mean tumor weight, dose: 200.0 mg/kg/injection, schedule: Q01DX011 (ip), vehicle: carboxymethylcellulose (CMC), higher = larger tumour) was 68 % of control. For the same molecule, the T/C (endpoint: mean tumor weight, dose: 400.0 mg/kg/injection, schedule: Q01DX011 (ip), vehicle: carboxymethylcellulose (CMC), higher = larger tumour) was 101 % of control.
For COC1=C(N)C(=O)c2nc(-c3nc(C(=O)O)c(C)cc3N)ccc2C1=O, the T/C (endpoint: median survival time, dose: 0.02 mg/kg/injection, schedule: Q01DX009 (ip), vehicle: Klucel (hydroxypropylcellulose) (HPC), higher = longer survival) was 91 % of control, the T/C (endpoint: median survival time, dose: 0.05 mg/kg/injection, schedule: Q01DX009 (ip), vehicle: Klucel (hydroxypropylcellulose) (HPC), higher = longer survival) was 106 % of control and the T/C (endpoint: median survival time, dose: 0.1 mg/kg/injection, schedule: Q01DX009 (ip), vehicle: Klucel (hydroxypropylcellulose) (HPC), higher = longer survival) was 103 % of control.
With CCOC(=O)NC the T/C (endpoint: mean tumor weight, dose: 177.0 mg/kg/injection, schedule: Q01DX011 (ip), vehicle: saline, higher = larger tumour) was 87 % of control, the T/C (endpoint: mean tumor weight, dose: 266.0 mg/kg/injection, schedule: Q01DX011 (ip), vehicle: saline, higher = larger tumour) was 83 % of control and the T/C (endpoint: mean tumor weight, dose: 400.0 mg/kg/injection, schedule: Q01DX011 (ip), vehicle: saline, higher = larger tumour) was 62 % of control. The T/C (endpoint: mean tumor weight, dose: 600.0 mg/kg/injection, schedule: Q01DX011 (ip), vehicle: saline, higher = larger tumour) was 44 % of control.
With COC1CCC(NC(=O)N(CCCl)N=O)CC1 (stereo not given) the T/C (endpoint: median survival time, dose: 16.0 mg/kg/injection, schedule: Q01DX001 (ip), vehicle: saline with Tween-80, higher = longer survival) was 121 % of control and the T/C (endpoint: median survival time, dose: 82.0 mg/kg/injection, schedule: Q01DX001 (ip), vehicle: saline with Tween-80, higher = longer survival) was 111 % of control.
For C=CCNc1ccc(C)cc1, the T/C (endpoint: mean tumor weight, dose: 12.5 mg/kg/injection, schedule: Q01DX011 (ip), vehicle: carboxymethylcellulose (CMC), higher = larger tumour) was 92 % of control, the T/C (endpoint: mean tumor weight, dose: 25.0 mg/kg/injection, schedule: Q01DX011 (ip), vehicle: carboxymethylcellulose (CMC), higher = larger tumour) was 93 % of control and the T/C [1] was 37 % of control. For the same molecule, the T/C [2] was 5 % of control.
For CNC(=O)N(C)c1cc(N(C)C)nc(OC)n1, the T/C (endpoint: median survival time, dose: 5.0 mg/kg/injection, schedule: Q01DX009 (ip), vehicle: Klucel (hydroxypropylcellulose) (HPC), higher = longer survival) was 98 % of control and the T/C (endpoint: median survival time, dose: 10.0 mg/kg/injection, schedule: Q01DX009 (ip), vehicle: Klucel (hydroxypropylcellulose) (HPC), higher = longer survival) was 115 % of control.
In the case of N=[N+]=CC(=O)OCC(N)C(=O)O (stereo not given), the T/C (endpoint: mean tumor weight, dose: 2.5 mg/kg/injection, schedule: Q01DX011 (ip), vehicle: saline, higher = larger tumour) was 76 % of control and 81 % of control and the T/C (endpoint: mean tumor weight, dose: 10.0 mg/kg/injection, schedule: Q01DX011 (ip), vehicle: saline, higher = larger tumour) was 24 % of control and 31 % of control.
In the case of NC(=NCc1ccccc1)c1ccc(N=C(N)c2ccc(C(N)=Nc3ccc(C(N)=NCc4ccccc4)cc3)cc2)cc1, the T/C (endpoint: median survival time, dose: 2.5 mg/kg/injection, schedule: Q01DX009 (ip), vehicle: saline, higher = longer survival) was 113 % of control, the T/C (endpoint: median survival time, dose: 5.0 mg/kg/injection, schedule: Q01DX009 (ip), vehicle: saline, higher = longer survival) was 107 % of control and the T/C (endpoint: median survival time, dose: 10.0 mg/kg/injection, schedule: Q01DX009 (ip), vehicle: saline, higher = longer survival) was 111 % of control.
In the case of Nc1ccc2ccccc2c1N=Nc1ccccc1, the T/C (endpoint: mean tumor weight, dose: 500.0 mg/kg/injection, schedule: Q01DX011 (ip), vehicle: other, higher = larger tumour) was 105 % of control, the T/C (endpoint: median survival time, dose: 50.0 mg/kg/injection, schedule: Q01DX009 (ip), vehicle: Klucel (hydroxypropylcellulose) (HPC), higher = longer survival) was 104 % of control and the T/C (endpoint: median survival time, dose: 100.0 mg/kg/injection, schedule: Q01DX009 (ip), vehicle: Klucel (hydroxypropylcellulose) (HPC), higher = longer survival) was 104 % of control. The T/C (endpoint: median survival time, dose: 200.0 mg/kg/injection, schedule: Q01DX009 (ip), vehicle: Klucel (hydroxypropylcellulose) (HPC), higher = longer survival) was 98 % of control and the T/C (endpoint: median survival time, dose: 400.0 mg/kg/injection, schedule: Q01DX009 (ip), vehicle: Klucel (hydroxypropylcellulose) (HPC), higher = longer survival) was 95 % of control.
Nc1ccc(Cl)c(N)c1 was tested, and the T/C (endpoint: mean tumor weight, dose: 22.0 mg/kg/injection, schedule: Q01DX011 (ip), vehicle: saline, higher = larger tumour) was 115 % of control, the T/C (endpoint: mean tumor weight, dose: 33.0 mg/kg/injection, schedule: Q01DX011 (ip), vehicle: saline, higher = larger tumour) was 117 % of control and the T/C (endpoint: mean tumor weight, dose: 50.0 mg/kg/injection, schedule: Q01DX011 (ip), vehicle: saline, higher = larger tumour) was 105 % of control.
C/C=C1\CN(C)[C@H]2Cc3c([nH]c4ccccc34)[C@@H](c3cc4[nH]c5c(c4cc3OC)CCN3C[C@H]4C[C@H](CC)[C@H]3[C@@]5(C(=O)OC)C4)C[C@H]1C2C(=O)OC (stereo not given in full) was tested, and the T/C (endpoint: mean tumor weight, dose: 18.0 mg/kg/injection, schedule: Q01DX011 (ip), vehicle: water, higher = larger tumour) was 66 % of control, the T/C (endpoint: mean tumor weight, dose: 27.0 mg/kg/injection, schedule: Q01DX011 (ip), vehicle: water, higher = larger tumour) was 81 % of control and the T/C (endpoint: mean tumor weight, dose: 40.0 mg/kg/injection, schedule: Q01DX011 (ip), vehicle: water, higher = larger tumour) was 62 % of control.
For CCC(CCC(C)C1CCC2C3CC=C4CC(OC(=O)CCC(=O)O)CCC4(C)C3CCC12C)C(C)C (stereo not given), the T/C (endpoint: mean tumor weight, dose: 200.0 mg/kg/injection, schedule: Q01DX011 (ip), vehicle: water, higher = larger tumour) was 63 % of control, the T/C (endpoint: mean tumor weight, dose: 400.0 mg/kg/injection, schedule: Q01DX011 (ip), vehicle: water, higher = larger tumour) was 38 % of control and the T/C (endpoint: mean tumor weight, dose: 450.0 mg/kg/injection, schedule: Q01DX011 (ip), vehicle: water, higher = larger tumour) was 59 % of control. For the same molecule, the T/C (endpoint: mean tumor weight, dose: 600.0 mg/kg/injection, schedule: Q01DX011 (ip), vehicle: water, higher = larger tumour) was 31 % of control.
